Bridge positions count the residues as written; N and C are the ends. Square brackets hold non-standard residues; d marks the D form. Peptide text beside a SMILES is read from it.

In one data set the target is Mpro (Severe acute respiratory syndrome coronavirus 2, UniProt P0DTD1). The data set is described as follows: biochemical. In kind it is binding, SARS-CoV-2.
The target of a further data set is NRP1 (Homo sapiens, UniProt O14786). The data set is described as follows: biochemical. The class given is binding.
NRP1, sequence (O14786 273-427): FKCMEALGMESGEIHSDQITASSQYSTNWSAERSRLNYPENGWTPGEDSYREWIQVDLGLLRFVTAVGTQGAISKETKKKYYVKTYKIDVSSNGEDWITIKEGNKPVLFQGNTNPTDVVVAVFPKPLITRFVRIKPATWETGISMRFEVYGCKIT
The next data set deals with SARS-CoV-2 Mpro (Severe acute respiratory syndrome coronavirus 2, UniProt P0DTD1). Put plainly: biochemical. As for the experimental part: According to a previously reported method ([Du et al., 2021]), the FRET-based enzymatic assay was used to evaluate the inhibitory effects of the peptides on Mpro. First, the Mpro (250 nM at a final concentration) was incubated with various concentrations of tested peptides in 90 μL reaction buffer for 30 min in a black 96-well plate, and then the reaction was initiated by adding 10 μL of […] FRET-based peptide substrate (Dabcyl-KTSAVLQ/SGFRKME-Edans). The reaction was monitored for 1 h, and the initial velocity was calculated using the data by linear regression. The IC50 was calculated by plotting the initial velocity against various concentrations of testing inhibitor by using a four parameters dose−response curve in Prism software.

The next data set concerns FHs 74 Int cells. Put plainly: MTT cytotoxicity assay, FHs 74 Int cells. The class given is cell-based, human. To be noted: 50 μM, 48 h. As for the experimental part:
According to a previously reported method ([Zheng et al., 2021b]), 293T, A549 and FHs 74 Int cells were plated in 96-well plates at a density of 5 × 10^4 cells per well. After incubation for 24 h, the peptide solution was added into the plates and the cells were incubated for 48 h. After that, the incubation medium was removed, the cells were washed with PBS at pH 7.4, and then MTT stock solution (0.5 mg/ml) was added into each well and incubated for another 4 h. The medium was removed by centrifugation, and the precipitated cells were lysed using DMSO. After the purple crystals were completely dissolved, the cell viability was calculated according to the absorbance signals measured by a microplate reader at the wavelength of 570 nm.
Figure S2. The cytotoxicity effects of MNs 1-4 on FHs 74 Int cells detected using MTT assay. Cells were treated with the concentration of 50 μM of peptides for 48 h. The results are represented as mean ± SD (n = 3).

In the case of `CC(C)C[C@@H]1NC(=O)[C@H](C(C)C)NC(=O)[C@H](C)NC(=O)[C@H](Cc2ccccc2)NC(=O)[C@H](CCC(N)=O)NC(=O)[C@H](CC(C)C)NC(=O)[C@@H](Cc2c[nH]c3ccccc23)NC(=O)[C@H](N)CSSC[C@H](C(=O)NCC(=O)NCC(=O)N[C@@H](CCCNC(=N)N)C(=O)N2CCC[C@H]2C(=O)N[C@@H](C)C(=O)N[C@@H](CCCNC(=N)N)C(=O)N2CCC[C@H]2C(=O)N[C@@H](C)C(=O)N[C@@H](CCCNC(=N)N)C(=O)O)NC(=O)[C@H](C)NC(=O)[C@H](CCC(N)=O)NC(=O)[C@H](CCCCN)NC(=O)[C@H](CCCCN)NC(=O)[C@H](CCC(=O)O)NC(=O)[C@H](CCCNC(=N)N)NC1=O` [MN-4] (H-[dC][dW]LQFAVLREKKQA[dC]GGRPARPAR-OH; disulfide 1-15), the Kd at Mpro was 0.116 ± 0.0055 µM; at NRP1 it was 0.0151 ± 0.0033 µM. Further, half-maximal inhibition at SARS-CoV-2 Mpro (IC50) was put at 0.119 ± 0.0061 µM.

On to `CC(C)C[C@@H]1NC(=O)[C@H](CCC(N)=O)NC(=O)[C@H](CCCNC(=N)N)NC(=O)[C@H](C)NC(=O)[C@H](CCCCN)NC(=O)[C@@H]2CSSC[C@@H](C(=O)N[C@@H](CC(=O)O)C(=O)N[C@@H](CCCCN)C(=O)N3CCC[C@H]3C(=O)N[C@@H](CCCNC(=N)N)C(=O)N[C@@H](CCCNC(=N)N)C(=O)O)NC(=O)[C@H](CCCNC(=N)N)NC(=O)[C@H](CSSC[C@H](NC(=O)[C@@H](N)CO)C(=O)N[C@@H](CCCCN)C(=O)N[C@@H](CC(N)=O)C(=O)N[C@@H]([C@@H](C)O)C(=O)N[C@@H](CC(=O)O)C(=O)N[C@@H](CO)C(=O)N[C@@H](CCCNC(=N)N)C(=O)N2)NC(=O)[C@H]([C@@H](C)O)NC(=O)[C@H](CCCNC(=N)N)NC(=O)[C@H](CCC(=O)O)NC(=O)[C@H](CC(N)=O)NC(=O)[C@H](CC(C)C)NC(=O)[C@H](CCC(=O)O)NC1=O` [EG3287, reference compound] (H-SCKNTDSRCKARQLELNERTCRCDKPRR-OH; disulfide 2-21, 9-23; N-terminus assumed), for which the “Mpro, Kd” value at Mpro (MST, mean ± SD (n = 3)) is given as “no binding affinity”. The molecule further displayed a Kd on NRP1 of 0.912 ± 0.0106 µM.

Turning to `CC(C)C[C@@H]1NC(=O)[C@H](C(C)C)NC(=O)[C@H](C)NC(=O)[C@H](Cc2ccc(O)cc2)NC(=O)[C@H](CCC(N)=O)NC(=O)[C@H](CC(C)C)NC(=O)[C@@H](Cc2ccccc2)NC(=O)[C@H](N)CSSC[C@H](C(=O)NCC(=O)NCC(=O)NCC(=O)N[C@@H](CCCNC(=N)N)C(=O)N2CCC[C@H]2C(=O)N2CCC[C@H]2C(=O)N[C@@H](CCCNC(=N)N)C(=O)N[C@@H](CCCNC(=N)N)C(=O)N[C@@H](C)C(=O)N[C@@H](CCCNC(=N)N)C(=O)O)NC(=O)[C@H](CCC(=O)O)NC(=O)[C@H](CCCNC(=N)N)NC(=O)[C@H](CCCNC(=N)N)NC(=O)[C@H](CCCCN)NC(=O)[C@H](CCC(N)=O)NC(=O)[C@H](CCCCN)NC1=O` [MN-2] (H-[dC][dF]LQYAVLKQKRRE[dC]GGGRPPRRAR-OH; disulfide 1-15), the dissociation constant Kd on Mpro amounted to 0.0182 ± 0.0019 µM; on NRP1, 0.0123 ± 0.0012 µM. The molecule also showed an IC50 on SARS-CoV-2 Mpro of 0.0206 ± 0.0022 µM. Also, the “viability of FHs 74 Int cells (cytotoxicity)” value in the data set with FHs 74 Int cells is “undetectable cytotoxicity”.

Regarding `CC(C)C[C@@H]1NC(=O)[C@H](C(C)C)NC(=O)[C@H](C)NC(=O)[C@H](Cc2ccccc2)NC(=O)[C@H](CCC(N)=O)NC(=O)[C@H](CC(C)C)NC(=O)[C@@H](Cc2ccccc2)NC(=O)[C@H](N)CSSC[C@H](C(=O)NCC(=O)NCC(=O)NCC(=O)N[C@@H](CCCNC(=N)N)C(=O)N2CCC[C@H]2C(=O)N[C@@H](CCCNC(=N)N)C(=O)N[C@@H](CCCNC(=N)N)C(=O)NCC(=O)N[C@@H](CCCNC(=N)N)C(=O)O)NC(=O)[C@H](CCC(N)=O)NC(=O)[C@H](CCCCN)NC(=O)[C@H](CCCNC(=N)N)NC(=O)[C@H](CCCNC(=N)N)NC(=O)[C@H](Cc2c[nH]cn2)NC(=O)[C@H](CCCNC(=N)N)NC1=O` [MN-1] (H-[dC][dF]LQFAVLRHRRKQ[dC]GGGRPRRGR-OH; disulfide 1-15), the Kd was determined as 0.0534 ± 0.0025 µM at Mpro and 0.0956 ± 0.0041 µM on NRP1. Also, the midpoint of inhibition against SARS-CoV-2 Mpro, the IC50, lay at 0.0563 ± 0.0039 µM.

`CC[C@@H](C)[C@H]1NC(=O)[C@H](N)CSSC[C@H](C(=O)NCC(=O)NCC(=O)NCC(=O)N[C@@H](CCCNC(=N)N)C(=O)NCC(=O)N[C@@H](CCC(=O)O)C(=O)N[C@@H](CCCNC(=N)N)C(=O)N2CCC[C@H]2C(=O)N2CCC[C@H]2C(=O)N[C@@H](CCCNC(=N)N)C(=O)O)NC(=O)[C@H](CCCCN)NC(=O)[C@H](CCCNC(=N)N)NC(=O)[C@H](CCC(N)=O)NC(=O)[C@H](CCCNC(=N)N)NC(=O)[C@H](CCCCN)NC(=O)[C@H](CCCCN)NC(=O)[C@H](Cc2ccccc2)NC(=O)[C@H](C(C)C)NC(=O)[C@H](C)NC(=O)[C@H](CC(C)C)NC(=O)[C@H](CCC(N)=O)NC(=O)[C@H](CC(C)C)NC1=O` [MN-3] (H-[dC][dI]LQLAVFKKRQRK[dC]GGGRGERPPR-OH; disulfide 1-15): the Kd on Mpro is 0.206 ± 0.0088 µM; at NRP1 it was 0.11 ± 0.0067 µM. In addition, half-maximal inhibition against SARS-CoV-2 Mpro (IC50) was put at 0.209 ± 0.0076 µM.

Values taken from publication PMC9666779 (Frontiers in Pharmacology, 2022).
